ChEMBL document CHEMBL3879886, “Substantially pure 2-{[2-(2-Methylamino-Pyrimidin-4-YL)-1H-Indole-5-Carbonyl]-Amino}-3-Phenylpyridin-2-YL-Amino)-Propionic acid as an IkB kinase inhibitor” (2007)

Experiments:
[1] = Drug uptake in Hartley guinea pig lung at 0.01 to 0.3 mg/kg administered via intra-tracheal instillation measured after 1 hr; type: ADME, organism-based, Cavia porcellus; settings: in vivo, inhaled_or_intranasal
[2] = Drug uptake in Hartley guinea pig plasma at 0.01 to 0.3 mg/kg administered via intra-tracheal instillation measured after 1 hr; type: ADME, organism-based, Cavia porcellus; settings: in vivo, inhaled_or_intranasal
Mus musculus = test: In vivo inhibition of IKK2 in Balb/c mouse assessed as decrease in IL-1beta-induced NF-kappaB activation administered intranasally 0.5 to 1 hr prior to IL-1beta challenge measured after 1 to 24 hrs by luciferase reporter gene assay; type: functional
[3] = Drug uptake in po dosed Hartley guinea pig plasma; type: ADME, organism-based, Cavia porcellus; settings: in vivo
[4] = Prodrug conversion in Hartley guinea pig lung assessed as formation of 2-{[2-(2-Methylamino-pyrimidin-4-yl)-lH-indole-5-carbo- nyl]-amino}-3-(phenyl-pyridin-2-yl-amino)-propionic acid at 0.01 to 0.3 administered via intra-tracheal instillation measured after 1 hr; type: ADME, Cavia porcellus; settings: in vivo, inhaled_or_intranasal
[5] = Drug uptake in Hartley guinea pig lung at 0.3 mg/kg administered via intra-tracheal instillation measured after 1 hr; type: ADME, organism-based, Cavia porcellus; settings: in vivo, inhaled_or_intranasal

Drug uptake [1]	Drug uptake [2]	Drug uptake [3]	Drug metabolism [4]	Drug uptake [5]	Compound	inhibition (Mus musculus)
Active	Active	Active	–	–	CNc1nccc(-c2cc3cc(C(=O)N[C@@H](CN(c4ccccc4)c4ccccn4)C(=O)O)ccc3[nH]2)n1	Dose-dependent effect
–	Active	Active	Metabolite_Detected	Active	CNc1nccc(-c2cc3cc(C(=O)N[C@@H](CN(c4ccccc4)c4ccccn4)C(=O)NOC)ccc3[nH]2)n1	Dose-dependent effect
